Measurements as given in article PMC8011931, “Identification, Structure–Activity Relationship, and Biological Characterization of 2,3,4,5-Tetrahydro-1H-pyrido[4,3-b]indoles as a Novel Class of CFTR Potentiators” (Journal of Medicinal Chemistry, 2020).

How the values were obtained:
Assay type in all cases: cell-based
F508del-CFTR [1] = target: T1, F508del-CFTR (Homo sapiens, UniProt P13569, DEL508-508); test: HS-YFP-based assay for CFTR activity on F508del-CFTR FRT cells rescued at 32 °C for 24 h; set-up: expressed in transfected cells; key to Emax: fold increase in F508del-CFTR rescue relative to hit 3 (normalized)
Description: The chemical library was screened in duplicate on a Fischer rat thyroid (FRT) cell line, stably coexpressing F508del-CFTR and the halide-sensitive yellow fluorescent protein, HS-YFP.[23],[34],[35] To overcome the F508del trafficking defect, cells were initially incubated for 24 h at 32 °C and then acutely treated (15–30 min) with a single compound (5 μM) in combination with forskolin (10 μM). After stimulation, the F508del-CFTR activity in the plasma membrane was calculated by measuring the rate of fluorescence quenching arising from iodide influx.[34] This activity was compared to that of wells containing forskolin alone (negative control) or forskolin plus VX-770 (1 μM, as a positive control) (Figure 2A). Analysis of screening performance with the Z′ method gave a score of 0.6, which can be considered optimal for this type of assay. The activity scores for each compound were then plotted as an ordered distribution (Figure 2B). All compounds whose average activity calculated from the two rounds of screening was greater than 185% with respect to the negative control (i.e., forskolin alone) were considered as primary hits.
The primary hits were confirmed by testing them at different concentrations, in order to extrapolate the dose–response relationship. First, we focused on the F508del mutant. The compounds were tested in the low micromolar range, in the presence of forskolin (10 μM), on F508del-CFTR FRT cells following rescue of the trafficking defect by low-temperature incubation, as done for the primary screening. The most interesting hits were subsequently tested for their ability to overcome the more severe gating defect of pure class III mutant using FRT cells stably expressing G551D-CFTR (Figure 3B).
The role of the heteroaryl group (A) acylating the position 2 of the tetrahydro-γ-carboline was initially explored by modifying the substituent on the pyrazolyl residue and replacing the pyrazole with other rings, while keeping the 8-methoxy carboline moiety unmodified. The activity of each compound is described in terms of normalized maximal efficacy (Emax), the maximum fold increase in the rescue of F508del-CFTR activity with respect to hit 3, and potency (EC50), the concentration producing half-maximal efficacy.
FRT cells stably expressing mutant F508del-CFTR or G551D-CFTR and the halide-sensitive yellow fluorescent protein (HS-YFP) YFP-H148Q/I152L and CFBE41o-cells stably expressing F508del-CFTR and HS-YFP were generated as previously described.[21],[57] FRT cells were cultured using the Coon’s modification of Ham’s F12 medium, while CFBE41o-cells were cultured in the modified Eagle’s medium. Media were supplemented with 10% fetal calf serum, 2 mM L-glutamine, 100 U/mL of penicillin, and […] of streptomycin. For functional assays of CFTR activity based on the HS-YFP assays, CFBE41o- or FRT cells were plated (50,000 cells/well) on clear-bottom 96-well black microplates (Corning Life Sciences, Acton, MA). The following day, cells were assayed. In the case of FRT cells expressing F508del-CFTR, plates were kept at 32 °C (or treated with correctors at 37 °C where indicated) for an additional 24 h to rescue the mutant trafficking defect, before assays.
Prior assay, cells were washed with phosphate-buffered saline (PBS) containing (in mM) 137 NaCl, 2.7 KCl, 8.1 Na2HPO4, 1.5 KH2PO4, 1 CaCl2, and 0.5 MgCl2. Cells were then incubated for 25 min with 60 μL of PBS plus forskolin (20 μM) and test compounds (at the desired concentration) to stimulate mutant CFTR. Cells were then transferred to microplate readers (FluoStar Optima; BMG Labtech, Offenburg, Germany) for CFTR activity determination. The plate readers were equipped with high-quality excitation (HQ500/20X: 500 ± 10 nm) and emission (HQ535/30M: 535 ± 15 nm) filters for YFP (Chroma Technology). […]

F508del-CFTR [2] = target: T1, F508del-CFTR; test: HS-YFP assay on F508del-CFTR CFBE41o- cells, acute stimulation; set-up: expressed in transfected cells; conditions: acute stimulation in the presence of forskolin, Figure 4A
Description: The preliminary activity of these three hits was further evaluated in secondary screening assays. Although featuring the same common scaffold, in order to possibly discriminate the most interesting hit for further structural investigations, the compounds belonging to the family of tetrahydro-γ-carbolines were tested on more relevant cell models. First, the hits were tested on an immortalized bronchial epithelial cell line (CFBE41o-) stably expressing F508del-CFTR and HS-YFP. […]
Prior assay, cells were washed with phosphate-buffered saline (PBS) containing (in mM) 137 NaCl, 2.7 KCl, 8.1 Na2HPO4, 1.5 KH2PO4, 1 CaCl2, and 0.5 MgCl2. […] Cells were then transferred to microplate readers (FluoStar Optima; BMG Labtech, Offenburg, Germany) for CFTR activity determination. The plate readers were equipped with high-quality excitation (HQ500/20X: 500 ± 10 nm) and emission (HQ535/30M: 535 ± 15 nm) filters for YFP (Chroma Technology). The assay consisted of a continuous 14 s fluorescence reading, 2 s before and 12 s after injection of 165 μL of an iodide-containing solution (PBS with Cl^– replaced by I^–; final I^– concentration 100 mM). Data were normalized to the initial background-subtracted fluorescence. […]

CFTR = target: T2, CFTR (Homo sapiens, UniProt P13569); test: Short-circuit current recordings on primary HBE cells from non-CF individuals
T2 construct: primary human bronchial epithelial (HBE) cells, from non-CF individuals; endogenous in cells; host or cells: primary human bronchial epithelial cells from non-CF individuals
Excerpt: Subsequently, the ability of compounds to elicit CFTR-mediated chloride secretion was verified on primary human bronchial epithelial (HBE) cells, from non-CF individuals, in short-circuit current experiments. In this respect, it should be noticed that potentiators are also able to stimulate wild-type CFTR, provided that a submaximal cAMP-dependent stimulation is applied.[20],[22] Accordingly, cells were stimulated with a submaximal concentration of the cAMP analogue, CPT-cAMP, followed by increasing concentrations of the potentiator hit.[20],[22]
Finally, potentiator 39 and VX-770 were further evaluated in primary HBE cells from non-CF individuals, using short-circuit current measurements, to assess the ability of compounds to maximally activate CFTR function in the presence of a submaximal cAMP stimulation. After the addition of amiloride to inhibit sodium absorption through the ENaC channel, the potentiators were added at the maximal effective concentration (1 μM) after which epithelia were stimulated with a submaximal concentration of CPT-cAMP (5 μM), followed by a maximal concentration of the cAMP analogue (100 μM) (Figure 8). We then measured the extent of CFTR-mediated chloride current elicited by submaximal cAMP stimulation in the presence of a potentiator and compared it to total CFTR-mediated chloride current, determined as the current inhibited by CFTR inhibitor-172. In parallel, other epithelia were stimulated only with the two concentrations of the cAMP analogue, in the absence of a potentiator.
Primary bronchial epithelial cells were cultured as previously described.[58] In brief, epithelial cells were cultured in a serum-free medium (LHC9 mixed with RPMI 1640, 1:1) supplemented with hormones and supplements to support cell number amplification. Then, the cells were seeded at high density on porous membranes (500,000 cells for 1 cm^2 Snapwell inserts, for Ussing chamber studies; 200,000 cells for 0.33 cm^2 Mini-Transwell inserts, for TEER/PD measurements). After 24 h, the serum-free medium was replaced with Dulbecco’s modified Eagle’s medium (DMEM)/Ham’s F12 containing 2% fetal bovine serum (FBS) plus hormones and supplements. Differentiation of cells to form a tight epithelium was monitored by measuring transepithelial electrical resistance and potential difference with an epithelial voltohmmeter (EVOM1, World Precision Instruments). […]
Differentiated bronchial epithelia on Snapwell inserts were mounted in a Ussing chamber with internal fluid circulation. […] The short-circuit current was recorded with a PowerLab 4/25 (ADInstruments) analog-to-digital converter connected to a personal computer.

T1 sequence (P13569 with tags, fused parts or gaps DEL508-508): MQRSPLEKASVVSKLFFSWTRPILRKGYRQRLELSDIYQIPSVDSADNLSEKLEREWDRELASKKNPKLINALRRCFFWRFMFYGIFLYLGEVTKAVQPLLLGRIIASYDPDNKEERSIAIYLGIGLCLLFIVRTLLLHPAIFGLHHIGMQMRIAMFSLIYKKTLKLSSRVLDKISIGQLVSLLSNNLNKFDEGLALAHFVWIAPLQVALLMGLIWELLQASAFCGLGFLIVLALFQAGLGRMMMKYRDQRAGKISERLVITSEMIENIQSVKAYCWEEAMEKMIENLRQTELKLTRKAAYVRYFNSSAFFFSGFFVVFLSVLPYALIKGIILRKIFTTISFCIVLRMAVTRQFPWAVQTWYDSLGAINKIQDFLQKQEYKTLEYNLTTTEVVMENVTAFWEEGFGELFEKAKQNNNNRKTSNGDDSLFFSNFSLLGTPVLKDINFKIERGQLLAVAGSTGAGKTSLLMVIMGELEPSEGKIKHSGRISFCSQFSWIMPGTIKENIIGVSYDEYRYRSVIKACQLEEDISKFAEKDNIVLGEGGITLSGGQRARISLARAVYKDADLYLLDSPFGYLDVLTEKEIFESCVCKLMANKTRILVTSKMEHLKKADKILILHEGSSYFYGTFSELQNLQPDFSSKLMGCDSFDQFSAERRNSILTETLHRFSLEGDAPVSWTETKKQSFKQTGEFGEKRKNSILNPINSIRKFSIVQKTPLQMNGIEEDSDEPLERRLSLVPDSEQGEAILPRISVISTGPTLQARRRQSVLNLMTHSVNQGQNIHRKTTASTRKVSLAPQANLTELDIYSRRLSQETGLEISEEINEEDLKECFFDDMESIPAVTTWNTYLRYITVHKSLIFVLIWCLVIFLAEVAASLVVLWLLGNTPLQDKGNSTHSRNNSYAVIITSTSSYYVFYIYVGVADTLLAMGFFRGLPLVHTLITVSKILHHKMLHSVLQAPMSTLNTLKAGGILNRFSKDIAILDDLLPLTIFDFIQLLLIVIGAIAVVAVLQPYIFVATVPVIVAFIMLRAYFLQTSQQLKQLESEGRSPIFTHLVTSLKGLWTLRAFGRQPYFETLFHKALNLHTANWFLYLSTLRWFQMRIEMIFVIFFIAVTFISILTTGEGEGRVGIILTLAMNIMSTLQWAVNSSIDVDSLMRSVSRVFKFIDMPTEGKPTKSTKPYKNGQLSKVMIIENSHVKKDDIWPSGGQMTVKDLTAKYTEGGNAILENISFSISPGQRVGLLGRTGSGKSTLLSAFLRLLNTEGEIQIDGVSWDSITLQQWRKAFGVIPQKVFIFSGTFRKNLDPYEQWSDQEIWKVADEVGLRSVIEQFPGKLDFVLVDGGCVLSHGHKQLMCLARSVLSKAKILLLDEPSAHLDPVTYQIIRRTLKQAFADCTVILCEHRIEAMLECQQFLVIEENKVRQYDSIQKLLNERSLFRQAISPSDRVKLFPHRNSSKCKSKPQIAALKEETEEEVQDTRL
T2 sequence (P13569 whole entry): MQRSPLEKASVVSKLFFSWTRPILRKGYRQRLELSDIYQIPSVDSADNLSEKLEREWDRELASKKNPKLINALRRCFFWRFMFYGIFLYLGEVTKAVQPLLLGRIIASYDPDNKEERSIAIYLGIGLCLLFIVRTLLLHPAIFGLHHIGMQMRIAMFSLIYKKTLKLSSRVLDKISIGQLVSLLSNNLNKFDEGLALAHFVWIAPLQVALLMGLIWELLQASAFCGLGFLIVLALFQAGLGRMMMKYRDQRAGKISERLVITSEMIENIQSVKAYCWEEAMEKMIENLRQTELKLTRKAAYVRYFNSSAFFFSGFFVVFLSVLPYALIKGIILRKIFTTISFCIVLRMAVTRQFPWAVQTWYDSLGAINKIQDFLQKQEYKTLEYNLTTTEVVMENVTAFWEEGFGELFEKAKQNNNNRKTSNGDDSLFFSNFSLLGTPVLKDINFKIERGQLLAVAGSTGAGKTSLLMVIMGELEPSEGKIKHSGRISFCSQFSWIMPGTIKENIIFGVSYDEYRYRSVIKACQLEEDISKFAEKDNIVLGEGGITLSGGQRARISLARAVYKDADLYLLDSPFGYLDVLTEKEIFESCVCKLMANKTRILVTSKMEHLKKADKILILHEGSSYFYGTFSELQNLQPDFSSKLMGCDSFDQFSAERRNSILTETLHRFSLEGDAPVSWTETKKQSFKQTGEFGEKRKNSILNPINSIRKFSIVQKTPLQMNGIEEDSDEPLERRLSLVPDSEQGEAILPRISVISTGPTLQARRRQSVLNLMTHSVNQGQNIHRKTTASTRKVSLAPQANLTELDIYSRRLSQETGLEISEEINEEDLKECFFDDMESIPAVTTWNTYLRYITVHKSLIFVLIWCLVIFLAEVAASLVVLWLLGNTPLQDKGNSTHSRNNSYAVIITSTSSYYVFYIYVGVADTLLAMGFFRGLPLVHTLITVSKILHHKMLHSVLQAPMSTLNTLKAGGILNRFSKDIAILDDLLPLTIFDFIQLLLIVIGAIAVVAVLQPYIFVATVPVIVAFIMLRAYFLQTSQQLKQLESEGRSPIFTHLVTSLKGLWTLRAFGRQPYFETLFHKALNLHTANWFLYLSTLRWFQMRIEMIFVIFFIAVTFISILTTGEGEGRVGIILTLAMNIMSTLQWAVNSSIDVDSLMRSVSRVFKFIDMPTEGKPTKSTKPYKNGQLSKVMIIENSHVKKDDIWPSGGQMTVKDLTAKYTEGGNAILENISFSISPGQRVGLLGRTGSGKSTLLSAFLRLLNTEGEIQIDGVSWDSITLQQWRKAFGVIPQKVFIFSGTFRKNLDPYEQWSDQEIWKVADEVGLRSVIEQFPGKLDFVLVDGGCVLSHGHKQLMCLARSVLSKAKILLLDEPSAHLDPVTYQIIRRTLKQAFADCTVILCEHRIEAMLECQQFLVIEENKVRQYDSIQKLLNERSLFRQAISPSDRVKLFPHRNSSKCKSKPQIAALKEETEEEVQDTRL

SMILES | EC50 (F508del-CFTR [1]; F508del-CFTR FRT cells rescued at 32 °C for 24 h, plus forskolin, mean ± SD (n = 3–6), n.a.: not active (up to 20 μM)) [µM] | Emax (F508del-CFTR [1]; supplementary csv, same data as Tables 1–3) | dose-dependent activation of mutant CFTR (F508del-CFTR [2]) | comparison of effectiveness of potentiators (CFTR; 1 μM for both compounds, Figure 8B) | increase of the fraction of CFTR-mediated chloride current activated by submaximal cAMP stimulation (CFTR; potentiator 1 μM, CPT-cAMP 5 μM, versus no potentiator)
CN(C)c1ccc2cc(C(=O)N3CCc4[nH]c5ccccc5c4C3)[nH]c2c1 [Compound 1, (6-(Dimethylamino)-1H-indol-2-yl)-(1,3,4,5-tetrahydro-2H-pyrido[4,3-b]indol-2-yl)methanone] | 0.12 ± 0.014 | 1.04 ± 0.07 | the most effective | – | –
CC(C)(C)c1cc(C(C)(C)C)c(NC(=O)c2c[nH]c3ccccc3c2=O)cc1O [VX-770, reference compound] | – | – | – | similarly effective | more than 2 fold
